Results as given in US8628961B2, “Small molecule antagonists of phosphatidylinositol-3,4,5-triphosphate (PIP3) and uses thereof” (Tufts University, priority 2010, dated 2014).

Legend:
[1] = biological target: PH123 (Homo sapiens (Human), UniProt P31749); assay: Lipid overlay assay of PIP3/PH123 binding
[2] = biological target: VAV2 (Homo sapiens (Human), UniProt P52735); assay: Plasma membrane translocation assay (GFP fusion); type: cell-based; settings: PDGF stimulation
Protocol: (§1) To begin characterizing cellular activity of PITs, a PH domain translocation assay was performed, measuring PIP3-induced association of GFP-fused PH domains with the plasma membrane. This method provides useful means for monitoring status of the PH domain/PIP3 binding in the intact cells. Varnai P et al. (1999) J Biol Chem 274:10983-9. Several PH-domain-containing proteins, which are known to bind PIP3 specifically and efficiently, were examined. […] Oikawa T et al. (2004) Nat Cell Biol 6:420-6.

[3] = biological target: WAVE2 (Homo sapiens (Human), UniProt Q9Y6W5); assay: Plasma membrane translocation assay (GFP fusion); type: cell-based
Sequence of WAVE2 (Q9Y6W5 whole entry, species assumed, the tested form may be a part): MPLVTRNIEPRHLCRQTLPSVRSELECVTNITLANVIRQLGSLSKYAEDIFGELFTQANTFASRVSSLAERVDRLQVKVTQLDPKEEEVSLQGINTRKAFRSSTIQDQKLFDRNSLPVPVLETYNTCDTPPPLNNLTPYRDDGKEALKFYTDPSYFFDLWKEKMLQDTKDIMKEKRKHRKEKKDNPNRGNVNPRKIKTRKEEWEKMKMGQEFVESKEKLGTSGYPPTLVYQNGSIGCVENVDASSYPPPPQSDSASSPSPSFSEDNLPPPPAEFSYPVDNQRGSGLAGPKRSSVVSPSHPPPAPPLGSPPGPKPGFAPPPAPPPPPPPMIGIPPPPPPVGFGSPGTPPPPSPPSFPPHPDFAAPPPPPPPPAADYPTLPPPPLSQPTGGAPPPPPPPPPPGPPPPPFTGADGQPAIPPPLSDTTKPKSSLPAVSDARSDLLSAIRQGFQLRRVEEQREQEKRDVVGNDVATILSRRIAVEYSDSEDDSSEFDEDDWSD
Protocol: as §1

[4] = test system: SV40-transformed mouse adult lung fibroblasts; assay: Viability of Akt1-expressing versus Akt1-3 triple knockout fibroblasts; type: cell-based
Source text: Shaughnessy J D (2008) Nature 454:172-3; Weinstein I G (2002) Science 297:63-4. Therefore, the possibility that PIT-1 may cause preferential cell death in the cells containing elevated PIP3 levels was examined. […] Li D M et al. (1998) Proc Natl Acad Sci USA 95:15406-11. […] Neshat M S et al. (2001) Proc Natl Acad Sci USA 98:10314-9.

[5] = test system: Rac1; assay: Rac1 activation pull-down (GST-Pak1-PBD), western blot; type: cell-based, human; settings: SUM159, PDGF
Protocol: Rho/Rac family, especially Rac1, plays a critical role in actin polymerization, membrane ruffling/lamellipodia formation, and cell motility (Ridley A J et al. (1992) Cell 70:401-410) downstream of the GEFs, e.g., VAV family, and upstream of the WAVE family. The effect of PITs on Rac1 activation was therefore analyzed. SUM159 cells were seeded on 10 cm^2 plates and serum starved overnight, treated with different PIT compounds at a variety of concentrations for 2 hr, and then stimulated with 100 ng/ml PDGF for 15 min. Next, cells were rinsed once with PBS, and 1 ml lysis buffer (25 mM Tris-HCl, pH 7.5, 150 mM NaCl, 5 mM MgCl2, 1% NP-40, 1 mM DTT, 5% glycerol, 1 μg/ml aprotinin, 1 μg/ml leupeptin and 1 mM PMSF) was added per plate. The cells were scraped and transferred to a microcentrifuge tube, vortexed briefly, and incubated on ice for 5 min, followed by a centrifugation at 16,000×g at 4° C. for 15 min. The supernatant was collected. A sample of the lysate was used to ensure equal protein concentration in the samples. Next, 700 μl lysate, 20 μl glutathione-sepharose beads, and 20 μg GST-human Pak1-PBD were mixed together, and the reaction mixture was incubated at 4° C. for 1 hr with gentle rocking. The beads were then washed three times with lysis buffer, and proteins were eluted by boiling beads in 50 μl of the 2×SDS sample buffer at 95-100° C. for 5 min. […]

[6] = test system: HUVEC; assay: Endothelial tube formation assay on Matrigel; type: cell-based, human; settings: P>0.05
Protocol: The tube formation assay was performed in 96-well plates. Wells were pre-coated with 70 μl of the Matrigel basement membrane matrix (BD Biosciences) per well for 1 hr at 37° C. HUVEC were suspended in serum-free M199 medium and plated on Matrigel at a density of 2×10^4 cells per well. PIT-1 was added at indicated concentrations (3.125-100 μM). After an 8 hr incubation at 37° C., phase-contrast images of the endothelial tubes were obtained using a Nikon TE2000 microscope, and tube formation was assessed by counting the number of closed tubes in five random fields from each well.

[7] = test system: U87MG cells; assay: Combination with Akt kinase inhibitors in U87MG cells (western blot, ATP assay); type: cell-based, human; settings: 100 μM PIT-1 with 10 μM Akt inhibitor
Protocol: U87MG cells were treated with 100 μM PIT-1, or 10 μM Akt inhibitor VIII (Calbiochem) or Akt inhibitor (Calbiochem), or 100 μM PIT-1 together with 10 μM Akt inhibitor VIII or Akt inhibitor, for 12 hr and then phosphorylation events were evaluated by western blot.

Sequence of PH123 (P31749 1-123): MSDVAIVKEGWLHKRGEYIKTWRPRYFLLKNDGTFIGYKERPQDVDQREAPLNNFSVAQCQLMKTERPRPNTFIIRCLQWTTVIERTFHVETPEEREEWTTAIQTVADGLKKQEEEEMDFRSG
Sequence of VAV2 (P52735 whole entry, species assumed, the tested form may be a part): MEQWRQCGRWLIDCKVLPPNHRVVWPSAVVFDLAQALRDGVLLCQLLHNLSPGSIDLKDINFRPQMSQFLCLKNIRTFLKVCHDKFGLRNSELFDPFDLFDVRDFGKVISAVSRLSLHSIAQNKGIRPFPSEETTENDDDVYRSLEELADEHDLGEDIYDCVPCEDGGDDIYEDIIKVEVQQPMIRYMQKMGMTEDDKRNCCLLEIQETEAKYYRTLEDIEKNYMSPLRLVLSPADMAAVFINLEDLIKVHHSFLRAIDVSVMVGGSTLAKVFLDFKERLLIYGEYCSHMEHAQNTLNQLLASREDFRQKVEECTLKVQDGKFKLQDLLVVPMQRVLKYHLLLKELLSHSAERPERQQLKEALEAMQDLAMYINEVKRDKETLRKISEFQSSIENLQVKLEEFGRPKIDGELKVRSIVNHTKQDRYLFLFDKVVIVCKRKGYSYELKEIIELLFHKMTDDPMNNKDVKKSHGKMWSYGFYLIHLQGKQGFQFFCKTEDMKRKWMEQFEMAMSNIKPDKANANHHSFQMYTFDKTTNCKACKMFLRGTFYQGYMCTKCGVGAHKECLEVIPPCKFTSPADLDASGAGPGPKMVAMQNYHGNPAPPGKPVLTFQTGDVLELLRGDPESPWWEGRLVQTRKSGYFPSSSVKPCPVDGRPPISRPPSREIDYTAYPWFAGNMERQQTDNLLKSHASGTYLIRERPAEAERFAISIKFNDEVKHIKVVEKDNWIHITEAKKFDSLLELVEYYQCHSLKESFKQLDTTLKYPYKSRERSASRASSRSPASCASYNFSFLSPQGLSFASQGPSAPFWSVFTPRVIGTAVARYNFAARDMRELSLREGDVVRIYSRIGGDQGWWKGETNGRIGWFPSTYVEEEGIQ

O=C(NC(=S)Nc1cc([N+](=O)[O-])cc(Cl)c1O)c1ccccc1 [PIT-1]
inhibitory effect on PIP3/PH123 binding [1]: concentration-dependent inhibitory effect | plasma membrane translocation of VAV2 [2]: significantly inhibited the translocation | plasma membrane translocation of WAVE2 [3]: suppressed the plasma membrane translocation | loss of viability in Akt1-expressing versus Akt1-3 triple knockout fibroblasts [4]: more pronounced (P<0.01) | activation of Rac1 caused by growth factor stimulation [5]: efficiently suppressed the activation of Rac1 | cell viability under tube formation conditions [6]: No loss of cell viability | combination with Akt kinase inhibitors: Akt activation, downstream phosphorylation, cell survival [7]: acted synergistically
